Reference: patent publication US20190119270A1, “N-Oxide Compound and Its Use in Treating Cancer” (AstraZeneca AB, priority 2016, published 2019)

Key:
Assay type in all cases: cell-based
[1] = target: T1, ATR (Homo sapiens, UniProt Q13535); test: ATR cellular potency assay (pChk1 Ser345 in HT29 cells with 4NQO); details: pChk1 (Ser 345); read-out: Assay b) ATR Cell IC50
T1 construct: endogenous in cells; host or cells: HT29 cells (ECACC #85061109)
Source text: ATR is a PI 3-kinase-related kinase which phosphorylates multiple substrates on serine or threonine residues in response to DNA damage during or replication blocks. Chk1, a downstream protein kinase of ATR, plays a key role in DNA damage checkpoint control. Activation of Chk1 involves phosphorylation of Ser317 and Ser345 (the latter regarded as the preferential target for phosphorylation/activation by ATR). This was a cell based assay to measure inhibition of ATR kinase, by measuring a decrease in phosphorylation of Chk1 (Ser 345) in HT29 cells, following treatment with compound of Formula (I) and the UV mimetic 4NQO (Sigma #N8141).
HT29 cells (ECACC #85061109) were seeded into 384 well assay plates (Costar #3712) at a density of 6000 cells/well in 40 μl EMEM medium containing 1% L glutamine and 10% FBS and allowed to adhere overnight. […]
Phospho-Chk1 Ser 345 antibody (Cell Signalling Technology #2348) was diluted 150 fold in PBS containing 0.05% polysorbate/Tween and 15 μl was added to each well and incubated over night at r.t. […] After 2 h incubation at r.t., the plates were washed three times with 50 μl/well PBS, using a Biotek EL405 plate washer, and plates were then sealed with black plate seals until read. Plates were read using an ArrayScan VTI instrument, using an XF53 filter with 10× objective. […]

[2] = target: PI3Kα (Homo sapiens, UniProt P42336); test: PI3K cellular potency assay (phospho-Akt T308 ELISA in BT474 cells); details: 2 h, phospho-Akt (T308); read-out: Assay c) PI3Kα Cell IC50
Source text: This assay was used to measure PI3K-a inhibition in cells. PDK1 was identified as the upstream activation loop kinase of protein kinase B (Akt1), which is essential for the activation of PKB. Activation of the lipid kinase phosphoinositide 3 kinase (PI3K) is critical for the activation of PKB by PDK1.
Following ligand stimulation of receptor tyrosine kinases, PI3K is activated, which converts PIP2 to PIP3, which is bound by the PH domain of PDK1 resulting in recruitment of PDK1 to the plasma membrane where it phosphorylates AKT at Thr308 in the activation loop.
The aim of this cell-based mode of action assay is to identify compounds that inhibit PDK activity or recruitment of PDK1 to membrane by inhibiting PI3K activity. Phosphorylation of phospho-Akt (T308) in BT474c cells following treatment with compounds for 2 h is a direct measure of PDK1 and indirect measure of PI3K activity. […]
After 20 minutes, the cell lysates were transferred into ELISA plates (Greiner #781077) which had been pre-coated with an anti total-AKT antibody in PBS buffer and non-specific binding was blocked with 1% BSA in PBS containing 0.05% Tween 20. […] Plates were read using a Tecan Safire plate reader using 325 nm excitation and 420 nm emission wavelengths respectively. […]

[3] = target: T2, ATM (Homo sapiens, UniProt Q13315); test: ATM cellular potency assay (pATM Ser1981 in irradiated HT29 cells); details: X-ray irradiation, pATM (Ser1981); read-out: Assay a) ATM Cell IC50
T2 construct: endogenous in cells; host or cells: HT29 cells (ECACC #85061109)
Source text: Cellular irradiation induces DNA double strand breaks and rapid intermolecular autophosphorylation of serine 1981 that causes dimer dissociation and initiates cellular ATM kinase activity. Most ATM molecules in the cell are rapidly phosphorylated on this site after doses of radiation as low as 0.5 Gy, and binding of a phosphospecific antibody is detectable after the introduction of only a few DNA double-strand breaks in the cell.
The rationale of the pATM assay is to identify inhibitors of ATM in cells. HT29 cells are incubated with test compounds for lhr prior to X-ray-irradiation. 1 h later the cells are fixed and stained for pATM (Ser1981). The fluorescence is read on the arrayscan imaging platform.
HT29 cells (ECACC #85061109) were seeded into 384 well assay plates (Costar #3712) at a density of 3500 cells/well in 40 μl EMEM medium containing 1% L glutamine and 10% FBS and allowed to adhere overnight. […]
Phospho-ATM Ser1981 antibody (Millipore #MAB3806) was diluted 10000 fold in PBS containing 0.05% polysorbate/Tween and 3% BSA and 20 μl was added to each well and incubated over night at r.t. […] After 1 h incubation at r.t., the plates were washed three times with 50 μl/well PBS, using a Biotek EL405 plate washer, and plates were sealed and kept in PBS at 4° C. until read. Plates were read using an ArrayScan VTI instrument, using an XF53 filter with 10× objective. […]

[4] = target: T3, mTOR (Homo sapiens, UniProt P42345); test: mTOR cellular potency assay (phospho-AKT Ser473 in MDA-MB-468 cells); details: 2 hours, phospho-AKT (Ser473), protocol A or B; read-out: Assay d) mTOR Cell IC50
T3 construct: endogenous in cells; host or cells: MDA-MB-468 cells
Method: The phospho-AKTser473 cell assay was performed in the MDA-MB-468 cell line, a PTEN null breast adenocarcinoma human cell line. As a consequence of the lack of PTEN, pAKT is constitutively activated which eliminates the requirement for stimulation to induce phosphorylation.
MDA-MB-468 cells were cultured in cell media composed of DMEM (Dulbecco's modified Eagle's medium #D6546)), 10% (v/v) Foetal Calf Serum and 1% (v/v) L-Glutamine. After harvesting, cells were dispensed into black, 384-well Costar plates (#3712, Corning) to give 1500 cells per well in a total volume of 40 μl cell media, and were incubated overnight at 37° C., 90% relative humidity and 5% CO2 in a rotating incubator. […]
Stained cell plates were covered with black seals, and then read on the Acumen (TTP Labtech) plate reader. The primary channel (green fluorescence, 488 nm) is used to set the intensity settings for the max/min cut off to allow for weekly variation in staining and the ‘AKT+: No of objects (No)’ data is used for the analysis. Data was analysed and IC50s were calculated using Genedata Screener® software. […]
Stained cell plates were covered with black seals, and then read on the Cell Insight imaging platform (Thermo Scientific), with a 10× objective. […] The secondary channel (Green […], BGRFR_485_20) measures pAKT staining Data was analysed and IC5os were calculated using Genedata Screener® software.

PI3Kα, sequence (P27986 2-724): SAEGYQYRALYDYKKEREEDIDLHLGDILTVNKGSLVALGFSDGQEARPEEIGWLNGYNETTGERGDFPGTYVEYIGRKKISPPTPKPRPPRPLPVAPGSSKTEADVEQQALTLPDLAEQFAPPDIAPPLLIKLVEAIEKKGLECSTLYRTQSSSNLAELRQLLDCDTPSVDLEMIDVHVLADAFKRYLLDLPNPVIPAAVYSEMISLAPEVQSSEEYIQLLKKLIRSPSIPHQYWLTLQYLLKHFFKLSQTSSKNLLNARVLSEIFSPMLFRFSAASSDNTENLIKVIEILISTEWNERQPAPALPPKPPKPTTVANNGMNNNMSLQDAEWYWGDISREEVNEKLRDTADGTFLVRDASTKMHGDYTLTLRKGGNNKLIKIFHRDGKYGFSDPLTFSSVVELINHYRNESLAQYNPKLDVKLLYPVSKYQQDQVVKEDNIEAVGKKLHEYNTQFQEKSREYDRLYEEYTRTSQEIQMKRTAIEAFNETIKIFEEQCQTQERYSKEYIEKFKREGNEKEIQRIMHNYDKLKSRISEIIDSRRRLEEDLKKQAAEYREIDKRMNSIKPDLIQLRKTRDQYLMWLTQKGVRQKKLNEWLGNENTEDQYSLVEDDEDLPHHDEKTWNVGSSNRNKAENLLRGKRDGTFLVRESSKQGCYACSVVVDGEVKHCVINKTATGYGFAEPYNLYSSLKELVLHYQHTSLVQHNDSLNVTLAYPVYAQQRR
PI3Kα, sequence (P42336 whole entry): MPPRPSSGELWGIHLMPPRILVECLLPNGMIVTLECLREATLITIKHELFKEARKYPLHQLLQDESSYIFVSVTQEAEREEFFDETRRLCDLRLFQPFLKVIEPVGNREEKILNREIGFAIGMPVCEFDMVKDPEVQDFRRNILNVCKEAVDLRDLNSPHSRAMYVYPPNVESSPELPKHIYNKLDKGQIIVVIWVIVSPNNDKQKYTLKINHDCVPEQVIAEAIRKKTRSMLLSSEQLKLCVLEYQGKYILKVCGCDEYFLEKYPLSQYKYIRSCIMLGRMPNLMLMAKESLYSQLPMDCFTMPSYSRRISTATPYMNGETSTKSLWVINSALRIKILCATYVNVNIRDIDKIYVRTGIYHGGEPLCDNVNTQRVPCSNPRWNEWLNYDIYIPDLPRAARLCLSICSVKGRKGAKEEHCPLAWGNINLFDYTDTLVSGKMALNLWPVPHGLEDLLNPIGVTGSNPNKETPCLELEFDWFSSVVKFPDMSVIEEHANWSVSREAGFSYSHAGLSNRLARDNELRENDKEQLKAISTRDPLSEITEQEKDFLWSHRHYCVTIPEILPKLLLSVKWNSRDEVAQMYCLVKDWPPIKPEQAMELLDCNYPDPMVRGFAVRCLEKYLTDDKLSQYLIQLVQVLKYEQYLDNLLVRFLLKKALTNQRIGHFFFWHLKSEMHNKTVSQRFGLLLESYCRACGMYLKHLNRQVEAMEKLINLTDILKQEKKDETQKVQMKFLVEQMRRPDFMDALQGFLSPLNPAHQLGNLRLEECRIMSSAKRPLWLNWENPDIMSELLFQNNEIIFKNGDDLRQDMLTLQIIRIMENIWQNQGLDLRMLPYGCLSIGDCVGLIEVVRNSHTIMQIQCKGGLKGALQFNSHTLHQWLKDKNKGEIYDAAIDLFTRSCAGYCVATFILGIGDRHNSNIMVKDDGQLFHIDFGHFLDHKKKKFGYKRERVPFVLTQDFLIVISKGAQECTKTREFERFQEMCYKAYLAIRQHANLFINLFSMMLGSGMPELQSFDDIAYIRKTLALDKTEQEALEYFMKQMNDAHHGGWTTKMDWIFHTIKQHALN
T2 sequence (Q13315 whole entry): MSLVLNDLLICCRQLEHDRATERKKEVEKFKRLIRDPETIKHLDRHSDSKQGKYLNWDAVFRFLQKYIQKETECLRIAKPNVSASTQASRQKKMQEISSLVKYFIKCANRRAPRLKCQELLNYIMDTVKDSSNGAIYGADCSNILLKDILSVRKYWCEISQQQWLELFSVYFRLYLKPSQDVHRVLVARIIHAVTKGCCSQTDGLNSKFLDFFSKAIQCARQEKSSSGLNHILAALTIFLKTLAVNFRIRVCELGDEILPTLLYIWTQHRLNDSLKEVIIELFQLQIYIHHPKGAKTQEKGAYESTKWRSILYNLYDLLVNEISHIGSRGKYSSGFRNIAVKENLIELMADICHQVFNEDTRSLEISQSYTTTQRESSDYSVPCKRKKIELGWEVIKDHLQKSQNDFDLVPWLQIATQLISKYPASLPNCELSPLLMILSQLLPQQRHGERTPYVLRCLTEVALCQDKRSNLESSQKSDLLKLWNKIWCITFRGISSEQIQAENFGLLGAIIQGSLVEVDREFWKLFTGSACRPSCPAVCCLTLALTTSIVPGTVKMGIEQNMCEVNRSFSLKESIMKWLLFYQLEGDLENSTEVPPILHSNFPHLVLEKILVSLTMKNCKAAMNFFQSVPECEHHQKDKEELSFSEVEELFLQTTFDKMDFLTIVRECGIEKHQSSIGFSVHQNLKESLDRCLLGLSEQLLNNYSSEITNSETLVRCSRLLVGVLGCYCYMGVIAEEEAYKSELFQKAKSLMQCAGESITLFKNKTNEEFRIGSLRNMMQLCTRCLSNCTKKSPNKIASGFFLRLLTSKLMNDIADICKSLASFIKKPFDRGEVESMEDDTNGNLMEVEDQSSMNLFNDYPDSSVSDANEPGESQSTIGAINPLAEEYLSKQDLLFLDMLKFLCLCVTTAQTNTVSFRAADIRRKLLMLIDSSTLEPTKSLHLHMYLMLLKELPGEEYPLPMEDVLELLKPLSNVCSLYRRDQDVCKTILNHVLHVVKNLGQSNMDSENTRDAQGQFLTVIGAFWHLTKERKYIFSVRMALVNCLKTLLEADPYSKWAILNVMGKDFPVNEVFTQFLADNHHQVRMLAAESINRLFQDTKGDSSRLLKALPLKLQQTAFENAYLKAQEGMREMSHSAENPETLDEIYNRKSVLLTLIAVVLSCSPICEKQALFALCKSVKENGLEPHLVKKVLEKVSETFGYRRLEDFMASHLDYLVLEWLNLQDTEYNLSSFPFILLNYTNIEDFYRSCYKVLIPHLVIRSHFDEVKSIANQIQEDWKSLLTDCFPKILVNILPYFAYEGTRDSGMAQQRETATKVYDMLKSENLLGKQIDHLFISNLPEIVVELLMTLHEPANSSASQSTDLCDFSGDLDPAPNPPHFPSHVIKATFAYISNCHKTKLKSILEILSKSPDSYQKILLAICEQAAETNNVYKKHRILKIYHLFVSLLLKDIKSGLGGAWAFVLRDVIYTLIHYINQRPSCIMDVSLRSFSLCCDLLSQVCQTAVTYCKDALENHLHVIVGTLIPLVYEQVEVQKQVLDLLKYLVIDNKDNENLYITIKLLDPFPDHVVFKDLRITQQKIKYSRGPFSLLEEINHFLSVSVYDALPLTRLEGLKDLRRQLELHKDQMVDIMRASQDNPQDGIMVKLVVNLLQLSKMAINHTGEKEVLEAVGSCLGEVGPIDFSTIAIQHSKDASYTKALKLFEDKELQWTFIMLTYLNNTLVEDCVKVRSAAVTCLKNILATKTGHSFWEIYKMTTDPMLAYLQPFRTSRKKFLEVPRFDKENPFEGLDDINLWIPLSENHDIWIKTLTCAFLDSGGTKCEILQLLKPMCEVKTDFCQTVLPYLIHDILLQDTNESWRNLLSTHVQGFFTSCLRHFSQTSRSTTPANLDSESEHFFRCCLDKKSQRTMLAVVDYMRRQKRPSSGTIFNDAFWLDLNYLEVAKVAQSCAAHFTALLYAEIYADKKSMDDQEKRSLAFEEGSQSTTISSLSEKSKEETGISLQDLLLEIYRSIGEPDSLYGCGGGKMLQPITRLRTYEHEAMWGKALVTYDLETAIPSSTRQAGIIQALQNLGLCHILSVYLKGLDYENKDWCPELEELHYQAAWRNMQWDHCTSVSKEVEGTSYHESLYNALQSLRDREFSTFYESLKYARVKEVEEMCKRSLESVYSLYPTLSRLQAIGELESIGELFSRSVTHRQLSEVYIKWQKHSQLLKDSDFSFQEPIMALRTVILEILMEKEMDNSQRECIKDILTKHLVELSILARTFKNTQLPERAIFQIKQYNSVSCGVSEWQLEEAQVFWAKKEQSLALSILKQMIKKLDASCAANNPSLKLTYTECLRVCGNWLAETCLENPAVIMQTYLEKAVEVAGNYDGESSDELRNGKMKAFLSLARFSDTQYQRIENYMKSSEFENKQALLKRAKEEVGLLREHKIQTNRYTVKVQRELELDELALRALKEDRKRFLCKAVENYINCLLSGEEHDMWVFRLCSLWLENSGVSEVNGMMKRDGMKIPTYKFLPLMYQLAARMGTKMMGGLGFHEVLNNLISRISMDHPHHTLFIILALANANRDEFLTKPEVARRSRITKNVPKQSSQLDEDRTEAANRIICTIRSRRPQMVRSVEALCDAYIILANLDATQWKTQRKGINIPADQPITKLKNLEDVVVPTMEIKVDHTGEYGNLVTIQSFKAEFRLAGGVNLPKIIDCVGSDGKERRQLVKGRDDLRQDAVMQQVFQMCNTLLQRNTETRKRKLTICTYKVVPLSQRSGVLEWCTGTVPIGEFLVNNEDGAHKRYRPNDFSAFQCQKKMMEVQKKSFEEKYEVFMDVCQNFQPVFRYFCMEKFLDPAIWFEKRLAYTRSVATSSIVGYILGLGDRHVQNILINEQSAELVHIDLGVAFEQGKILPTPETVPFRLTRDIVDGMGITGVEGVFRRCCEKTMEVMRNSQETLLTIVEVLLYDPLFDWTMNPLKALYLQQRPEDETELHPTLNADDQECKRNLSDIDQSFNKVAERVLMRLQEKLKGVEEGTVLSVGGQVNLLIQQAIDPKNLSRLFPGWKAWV

Cn1c(=O)n(C2CCOCC2)c2c3cc(-c4ccc(OCCC[N+](C)(C)[O-])nc4)ccc3ncc21 [Example 1] showed an IC50 [1] of 10.3 µM, an IC50 [2] of 17.8 µM and an IC50 [3] of 0.0054 µM. For the same compound, the IC50 [4] was > 1.25 µM.
